System: CD4^+CD62L^+ naïve T cells
Assay: In vitro Th1 polarization: proliferation and cytokine production
Assay type: cell-based, mouse
Procedure: Mouse splenocytes were first removed isolated from DO11.10 mice, which express an MHC class II restricted T cell receptor specific for OVA323-339. Mouse CD4^+ T cells were purified using a Miltenyi CD4^+ T cell negative isolation kit (Cat#130-090-860). […] CD4^+CD62L^+ naïve T cells with or without CD25^+ T cells were cultured in serum free HL-1 media in the presence of rIL-2 (1 ng/mL), rIL-12 (4 ng/mL) and anti-IL-4 (1 μg/mL). Activity of murine B7-H4-Ig was tested in a number of formats (soluble and insoluble presentation of B7-H4-Ig). Murine B7-H4-Ig was also assessed for activity on T cells activated non-specifically or with antigen-specific stimulation. To provide murine B7-H4-Ig in an immobilized format, 96-well flat bottom plates were first coated with murine B7-H4-Ig, 100 μl per well at 1 μg/mL, and incubated at 37° C. for 2 hours. […] For non-specific antigen activation, Mouse CD3/CD28 T Cell Expander beads (Dynabeads®; Invitrogen, Cat#11452D) were added into each well, at a 1:1 cell to bead ratio. For OVA specific activation, splenocytes were first isolated from Balb/C mice as antigen presenting cells (APC) followed by irradiation at 3000 rads for 45 minutes and then added into each well, at a 1:1, APC to responder cell, ratio. OVA323-339 peptide was added into the culture at 20 μg/mL. [^3H]-Thymidine (1 μCi/well) was added into each well 24 hr post co-incubation. Proliferation was determined by uptake of [^3H]-thymidine detected at 48 hr post [^3H]-thymidine addition using a Topcount Microplate Scintillation Counter (Packard Instruments, Meridan, Conn.). Results are expressed as the mean of triplicate cultures±SEM. Supernatants were collected from plates without [^3H]-Thymidine at 72 hr for cytokine analysis. Cytokine measurements were performed using the Mouse Cytokine 10-Plex system (Millipore) and Luminex Liquidchip analyzer (Qiagen, Valencia, Calif.) or ELISA. The human and mouse B7-H4 proteins are 95% homologous. Human B7-H4-Ig was tested for cross-reactivity with murine T cells. Naïve CD4^+ T cells were isolated as described above. Upon purification, murine naïve CD4^+ T cells were polarized in the presence of IL-2, IL-12 and anti-IL4 for Th1 cell-promoting conditions, or TGF-β, IL-6, IL-23, anti-IL4, anti-IFNγ and anti-IL-2 for Th17 cell-promoting conditions, as described in Example 5 for murine B7-H4-Ig in vitro bioactivity. Human B7-H4-Ig was directly added into the culture at 0, 0.1, 1 or 10 μg/mL. Human Control IgG1 (Synagis®) was added into the culture to bring the final protein concentration to 10 μg/mL. […] After depletion of CD4^+CD25^+ T cells, CD25^+/P3^+ cells were decreased from approximately 5% to 1%.

| Substance | IFN-γ production in Th1 cells (0, 0.1, 1 or 10 μg/mL in solution, anti-CD3/CD28 beads (FIG. 27)) | murine Th1 proliferation (0, 0.1, 1 or 10 μg/mL in solution, anti-CD3/CD28 beads, dose dependent (FIG. 26)) | decrease in IFN-γ production (Th1 conditions, APC/OVA, CD25+ T cells depleted (open triangles), various doses (FIG. 29A)) | inhibition of IFN-γ production (Th1 conditions, APC/OVA, in the presence of CD4+CD25+ Treg cells (solid triangle) (FIG. 29A)) | IL-10 production (Th1 conditions, APC/OVA, solid triangles (FIG. 29B)) |
| --- | --- | --- | --- | --- | --- |
| Human B7-H4-Ig: human B7-H4 extracellular domain fused to hinge, CH2 and CH3 regions of human immunoglobulin Cγ1 chain; representative SEQ ID NOs:114-137 | reduced IFN-γ production | blocked murine Th1/Th17 proliferation | – | – | – |
| B7-H4-Ig: B7-H4 extracellular domain fused to Ig Fc; bare label is the human protein in Example 3, murine protein in Examples 1, 2, 5, 7-11 | – | – | dose dependent | more profound | increased IL-10 production in a dose dependent manner |

— patent publication US9011853B2, “B7-H4 fusion proteins and methods of use thereof” (Amplimmune, Inc., priority 2009, dated 2015)
